Source: patent US20240052423A1, “METHODS OF IDENTIFYING A TUMOR THAT IS SENSITIVE TO TREATMENT WITH TALAZOPARIB AND METHODS OF TREATMENT THEREOF” (PFIZER INC., priority 2020, published 2024)

Legend:
Type in all cases: in vivo, human
[1] = test system: HER2-negative advanced or metastatic breast cancer with a non-BRCA1/2 mutation in homologous recombination; assay: Phase II clinical trial of talazoparib, best response by RECIST v.1.1, breast cancer cohort; conditions: Breast Cancer (N = 13), 1 mg orally daily
Procedure: (§1) A phase II clinical trial of the PARP inhibitor talazoparib in BRCA1 and BRCA2 wild-type patients with HER2-negative advanced breast cancer or other solid tumors with a mutation in homologous recombination was conducted as shown in FIG. 1. Eligible patients were adults (≥18 years old) with HER2-negative advanced or metastatic breast cancer that had progressed on at least 1 prior line of therapy for metastatic disease. Eligible patients also included adults (≥18 years old) with advanced or metastatic solid tumors beyond breast cancer that had progressed on at least one prior line of therapy. Patients were required to have no pathogenic mutations in either BRCA1 or BRCA2 genes on germline or somatic testing. They were required to have a pathogenic or likely pathogenic mutation in a HR-pathway associated gene detected on multiplex germline or somatic testing. These genes include: PALB2, CHEK2, ATM, NBN, BARD1, BRIP1, RAD50, RAD51C, RAD51D, MRE11, ATR, PTEN, Fanconi anemia complementation group of genes (FANCA, FANCC, FANCD2, FANCE, FANCF, FANCG, FANCL), plus other HR-related genes at the discretion of the primary investigators. Measurable disease by RECIST version 1.1 was required. There was no upper limit on the number of prior systemic therapies allowed prior to study entry. Patients were not allowed to have progressed during therapy with a platinum agent or within 8 weeks of discontinuing a platinum agent. Subjects were required to have an Eastern Cooperative Oncology Group (ECOG) performance status (PS) of 0-2 and adequate organ function based on screening laboratory values of liver, renal and hematologic parameters. The ability to take oral medications was required. Sexually active patients of childbearing potential were mandated to use contraception and females of childbearing age were tested for pregnancy at screening; females were not permitted to participate if pregnant or nursing and were tested for pregnancy at screening. Patients were excluded if they previously took any PARP inhibitor, had taken any anti-cancer therapy within 21-days of study entry, received radiation therapy within 14 days of study entry, had active brain metastasis requiring treatment or leptomeningeal disease. Patients with human immunodeficiency virus infection or active hepatitis C or hepatitis B viral infections were excluded. Also, patients requiring prolonged hospitalization, major surgery or receiving other investigational agent within 21 days prior to study entry were excluded. Additional key exclusion criteria were: other medical co-morbidity likely to interfere with study participation eg. infection grade ≥3 CTCAE version 4, or requiring parenteral antibiotics within 7 days, or known hypersensitivity to talazoparib. Talazoparib was administered at 1 mg orally daily continuously, taken whole, at approximately the same time each day. Treatment cycles lasted 28 days. Patients were evaluated on day 1 of each treatment cycle by physician assessment including medical history, physical examination, laboratory values (complete blood count (CBC) and comprehensive metabolic panel), vital signs, ECOG PS assessment and urine pregnancy test (for women of childbearing age only). Day 14 physician assessment was required for the first cycle and CBCs were required weekly for the first cycle, then prior to start of each subsequent cycle. Treatment continued until disease progressed or unacceptable toxicity. Safety was assessed at each physician visit and monitored continuously by laboratory values, patient reporting and patient diary. Adverse events (AEs) and severe AEs (SAEs) were graded according to CTCAE version 4.0. SAEs grade ≥3 were reported to the Data Safety Monitoring Committee. Tumor evaluation was performed at baseline and after every two cycles and responses were assessed according to RECIST version 1.1. After six cycles, tumor evaluations were allowed every 3 cycles per physician discretion. […]

[2] = test system: other solid tumors with a mutation in homologous recombination; assay: Phase II clinical trial of talazoparib, best response by RECIST v.1.1, non-breast cancer cohort; conditions: Non-Breast Cancer (N = 7), 1 mg orally daily
Procedure: as §1

[3] = test system: HER2-negative advanced breast cancer or other solid tumors with a mutation in homologous recombination; assay: Phase II clinical trial of talazoparib, best response by RECIST v.1.1, combined cohorts
Procedure: as §1

[4] = Combined (N = 20), 1 mg orally daily, RECIST v.1.1

## Cn1ncnc1[C@H]1c2n[nH]c(=O)c3cc(F)cc(c23)N[C@@H]1c1ccc(F)cc1 [talazoparib, (8S,9R)-5-fluoro-8-(4-fluorophenyl)-9-(1-methyl-1H-1,2,4-triazol-5-yl)-8,9-dihydro-2H-pyrido[4,3,2-de]phthalazin-3(7H)-one]
[1]; 95% CI: 9-61%
  ORR (CR + PR): 4 (31%); n (%)
[1]; 95% CI: 21-81%
  CBR (CR + PR + SD ≥ 6 mos): 7 (54%); n (%)
[1]; RECIST v.1.1
  Complete Response (CR), response rate: 0 (0%) n (%)
  Partial Response (PR), response rate: 4 (31%) n (%)
  Progressive Disease (PD), response rate: 3 (23%) n (%)
  Stable Disease (SD), response rate: 6 (46%) n (%)
[2]
  CBR (CR + PR + SD ≥ 6 mos): 2 (29%); n (%)
[2]; 95% CI: 0-41%
  ORR (CR + PR): 0 (0%); n (%)
[2]; RECIST v.1.1
  Complete Response (CR), response rate: 0 (0%) n (%)
  Partial Response (PR), response rate: 0 (0%) n (%)
  Progressive Disease (PD), response rate: 3 (43%) n (%)
  Stable Disease (SD), response rate: 4 (57%) n (%)
[3]; Combined (N = 20), 1 mg orally daily, 95% CI: 6-44%
  ORR (CR + PR): 4 (20%); n (%)
[3]; Combined (N = 20), 1 mg orally daily, 95% CI: 23-68%
  CBR (CR + PR + SD ≥ 6 mos): 9 (45%); n (%)
[3]; [4]
  Complete Response (CR), response rate: 0 (0%) n (%)
  Partial Response (PR), response rate: 4 (20%) n (%)
  Progressive Disease (PD), response rate: 6 (30%) n (%)
  Stable Disease (SD), response rate: 10 (50%) n (%)
[3]; first stage of 10 patients
  partial responses observed in the first stage: two
